We go through 14 compounds from patent US8846739B2, “TGR5 agonists” (Exelixis Patent Company LLC, priority 2009, dated 2014).

Structures are written as SMILES. pEC50: −log10 of the molar value.

The target in one assay is T1, human TGR5 (h-TGR5) (Homo sapiens, UniProt Q8TDU6).
T1 sequence (Q8TDU6 1-330): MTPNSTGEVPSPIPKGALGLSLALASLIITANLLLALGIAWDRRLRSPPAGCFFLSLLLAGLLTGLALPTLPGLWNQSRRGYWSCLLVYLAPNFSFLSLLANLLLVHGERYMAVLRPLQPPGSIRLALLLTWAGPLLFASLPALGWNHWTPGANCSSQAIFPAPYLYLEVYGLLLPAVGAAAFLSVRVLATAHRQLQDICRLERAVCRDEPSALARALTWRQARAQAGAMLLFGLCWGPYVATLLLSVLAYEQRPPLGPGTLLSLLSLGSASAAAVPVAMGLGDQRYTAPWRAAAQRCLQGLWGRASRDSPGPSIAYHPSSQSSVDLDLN
Description: TGR5/CRE-Luciferase Assay. Type of assay: cell-based. The following applies: HEK 293 hTGR5/CRE-Luc cells, 6 hours incubation, read-out: CRE-Luc Agonist (EC50). Summed up:
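HEK 293 CRE-Luciferase cells stably expressing the receptor, plated in DMEM 18-20 h before assay, then exposed to serially diluted compounds (DMEM with 5% DMSO) for 6 h. Luciferase read-out after lysis; EC50 from dose-response.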

The target of the next assay is T2, h-TGR5 (Homo sapiens, UniProt Q8TDU6).
T2 sequence (Q8TDU6 1-330): T1 sequence (Q8TDU6 1-330)
Description: TGR5 cAMP Assay using Cisbio cAMP Dynamic 2 htrf assay kit. Type of assay: cell-based. The following applies: hTGR5CRE-luc HEK 293 cells.

What is called pEC50 is the negative decadic logarithm of the EC50, by convention in mol/L. In the case of `COc1cc(C(C)(C)c2cnc(SCc3c(F)cc(C(=O)N[C@H]4CC[N+](C)(Cc5ccc(F)cc5)C4)cc3Cl)n2-c2ccc(F)cc2)ccc1Cl` (stereo partly drawn) [Example 2e, (3S)-3-({[3-chloro-4-({[5-{1-[4-chloro-3-(methyloxy)phenyl]-1-methylethyl}-1-(4-fluorophenyl)-1H-imidazol-2-yl]thio}methyl)-5-fluorophenyl]carbonyl}amino)-1-[(4-fluorophenyl)methyl]-1-methylpyrrolidinium], the pEC50 on human TGR5 (h-TGR5) and on h-TGR5 was more than 7.00 throughout.
In the case of `COc1cc(C(C)(C)c2cnc(SCc3c(F)cc(C(=O)N[C@H]4CC[N+](C)(C)C4)cc3Cl)n2-c2ccc(F)cc2)ccc1Cl` [Example 2f, (3S)-3-({[3-chloro-4-({[5-{1-[4-chloro-3-(methyloxy)phenyl]-1-methylethyl}-1-(4-fluorophenyl)-1H-imidazol-2-yl]thio}methyl)-5-fluorophenyl]carbonyl}amino)-1,1-dimethylpyrrolidinium], the pEC50 on human TGR5 (h-TGR5) and on h-TGR5 was more than 7.00 each time.
Regarding `COc1cc(C(C)(C)c2cnc(SCc3c(F)cc(C(=O)N[C@@H]4CCC[N+](C)(C)C4)cc3Cl)n2-c2ccc(F)cc2)ccc1Cl` [Example 2g, (3R)-3-({[3-chloro-4-({[5-{1-[4-chloro-3-(methyloxy)phenyl]-1-methylethyl}-1-(4-fluorophenyl)-1H-imidazol-2-yl]thio}methyl)-5-fluorophenyl]carbonyl}amino)-1,1-dimethylpiperidinium], the pEC50 on human TGR5 (h-TGR5) and on h-TGR5 was more than 7.00 throughout.
With `COc1cc(C(C)(C)c2cnc(SCc3c(F)cc(C(=O)N[C@@H]4CC[N+](C)(C)C4)cc3Cl)n2-c2ccc(F)cc2)ccc1Cl` [Example 2h, (3R)-3-({[3-chloro-4-({[5-{1-[4-chloro-3-(methyloxy)phenyl]-1-methylethyl}-1-(4-fluorophenyl)-1H-imidazol-2-yl]thio}methyl)-5-fluorophenyl]carbonyl}amino)-1,1-dimethylpyrrolidinium], the pEC50 on human TGR5 (h-TGR5) and at h-TGR5 was more than 7.00 each time.
Consider `COc1cc(C(C)(C)c2cnc(SCc3c(F)cc(C(=O)NCC[N+]4(C)CC[N+](C)(C)CC4)cc3Cl)n2-c2ccc(F)cc2)ccc1Cl` [Example 2i, 1-[2-({[3-chloro-4-({[5-{1-[4-chloro-3-(methyloxy)phenyl]-1-methylethyl}-1-(4-fluorophenyl)-1H-imidazol-2-yl]thio}methyl)-5-fluorophenyl]carbonyl}amino)ethyl]-1,4,4-trimethylpiperazinediium], for which the pEC50 at human TGR5 (h-TGR5) and at h-TGR5 was 6.00 to 7.00 each time.
On to `COc1cc(C(C)(C)c2cnc(SCc3c(F)cc(C(=O)NCC[N+]4(C)CCOCC4)cc3Cl)n2-c2ccc(F)cc2)ccc1Cl` [Example 2j, 4-[2-({[3-chloro-4-({[5-{1-[4-chloro-3-(methyloxy)phenyl]-1-methylethyl}-1-(4-fluorophenyl)-1H-imidazol-2-yl]thio}methyl)-5-fluorophenyl]carbonyl}amino)ethyl]-4-methylmorpholin-4-ium], for which the pEC50 on human TGR5 (h-TGR5) and on h-TGR5 was 5.00 to 6.00 throughout.
For the compound `COc1cc(-n2c(C(C)(C)c3ccc4onc(N)c4c3)cnc2SCc2c(F)cc(C(=O)N[C@H]3CC[N+](C)(C)C3)cc2F)ccc1F` [Example 2k, (3S)-3-[({4-[({5-[1-(3-amino-1,2-benzisoxazol-5-yl)-1-methylethyl]-1-[4-fluoro-3-(methyloxy)phenyl]-1H-imidazol-2-yl}thio)methyl]-3,5-difluorophenyl}carbonyl)amino]-1,1-dimethylpyrrolidinium], the negative logarithm of the EC50 (pEC50) on human TGR5 (h-TGR5) and on h-TGR5 was more than 7.00 throughout.
For `COc1cc(C(C)(C)c2cnc(SCc3c(F)cc(C(=O)N4CCC([N+](C)(C)C)CC4)cc3Cl)n2-c2ccc(F)cc2)ccc1Cl` [Example 2l, 1-{[3-chloro-4-({[5-{1-[4-chloro-3-(methyloxy)phenyl]-1-methylethyl}-1-(4-fluorophenyl)-1H-imidazol-2-yl]thio}methyl)-5-fluorophenyl]carbonyl}-N,N,N-trimethylpiperidin-4-aminium], the negative-log EC50 (pEC50) at human TGR5 (h-TGR5) and on h-TGR5 was more than 7.00 in each case.
As to `COc1cc(C(C)(C)c2cnc(SCc3c(F)cc(C(=O)NCC4(O)CC[N+](C)(C)CC4)cc3Cl)n2-c2ccc(F)cc2)ccc1Cl` [Example 2m, 4-[({[3-chloro-4-({[5-{1-[4-chloro-3-(methyloxy)phenyl]-1-methylethyl}-1-(4-fluorophenyl)-1H-imidazol-2-yl]thio}methyl)-5-fluorophenyl]carbonyl}amino)methyl]-4-hydroxy-1,1-dimethylpiperidinium], the pEC50 on human TGR5 (h-TGR5) and at h-TGR5 was more than 7.00 in each case.
As to `COc1cc(-n2c(C(C)(C)c3ccc(Cl)c(Cl)c3)cnc2SCc2c(F)cc(C(=O)NCC[N+](C)(C)C)cc2Cl)ccc1F` [Example 2n, 2-[({3-chloro-4-[({5-[1-(3,4-dichlorophenyl)-1-methylethyl]-1-[4-fluoro-3-(methyloxy)phenyl]-1H-imidazol-2-yl}thio)methyl]-5-fluorophenyl}carbonyl)amino]-N,N,N-trimethylethanaminium], the pEC50 at human TGR5 (h-TGR5) and at h-TGR5 was more than 7.00 throughout.
Consider `COc1cc(-n2c(C(C)(C)c3ccc(Cl)c(Cl)c3)cnc2SCc2c(F)cc(C(=O)N[C@H]3CCC[N+](C)(C)C3)cc2Cl)ccc1F` [Example 2o, (3S)-3-[({3-chloro-4-[({5-[1-(3,4-dichlorophenyl)-1-methylethyl]-1-[4-fluoro-3-(methyloxy)phenyl]-1H-imidazol-2-yl}thio)methyl]-5-fluorophenyl}carbonyl)amino]-1,1-dimethylpiperidinium], for which the negative logarithm of the EC50 (pEC50) at human TGR5 (h-TGR5) and at h-TGR5 was more than 7.00 in each case.
Take `COc1cc(C(C)(C)c2cnc(SCc3c(F)cc(C(=O)N[C@H]4CCC[N+](C)(C)C4)cc3Cl)n2-c2ccc(F)cc2)ccc1F` [Example 2p, (3S)-3-({[3-chloro-5-fluoro-4-({[5-{1-[4-fluoro-3-(methyloxy)phenyl]-1-methylethyl}-1-(4-fluorophenyl)-1H-imidazol-2-yl]thio}methyl)phenyl]carbonyl}amino)-1,1-dimethylpiperidinium]: the pEC50 at human TGR5 (h-TGR5) and at h-TGR5 was more than 7.00 each time.
On to `COc1cc(C(C)(C)c2cnc(SCc3c(F)cc(C(=O)N[C@H]4CC[N+](C)(C)C4)cc3Cl)n2-c2ccc(F)cc2)ccc1F` [Example 2q, (3S)-3-({[3-chloro-5-fluoro-4-({[5-{1-[4-fluoro-3-(methyloxy)phenyl]-1-methylethyl}-1-(4-fluorophenyl)-1H-imidazol-2-yl]thio}methyl)phenyl]carbonyl}amino)-1,1-dimethylpyrrolidinium], for which the pEC50 on human TGR5 (h-TGR5) and on h-TGR5 was more than 7.00 throughout.
Turning to `COc1cc(-n2c(C(C)(C)c3ccc(Cl)c(Cl)c3)cnc2SCc2c(F)cc(C(=O)N[C@H]3CC[N+](C)(C)C3)cc2Cl)ccc1F` [Example 2r, (3S)-3-[({3-chloro-4-[({5-[1-(3,4-dichlorophenyl)-1-methylethyl]-1-[4-fluoro-3-(methyloxy)phenyl]-1H-imidazol-2-yl}thio)methyl]-5-fluorophenyl}carbonyl)amino]-1,1-dimethylpyrrolidinium], the pEC50 on human TGR5 (h-TGR5) and on h-TGR5 was more than 7.00 each time.
